These results are taken from patent US20190106460A1, “BINDING INHIBITORS OF THE BETA. TRANSDUCIN REPEAT-CONTAINING PROTEIN” (priority 2011, published 2019).

Where two headings read alike, the source gives them in different places. Starred links: 1 amine or outer side, 2 acyl side, 3 side chain; linkers in the order of their positions; H or OH if unused. Non-standard residues stand in square brackets, D forms with d. Residues, ends and D or L forms follow the SMILES beside them. No end group written: not given here. *: point of attachment. Phe(4-NO2) = N[C@@H](Cc1ccc([N+](=O)[O-])cc1)C(=O)O; Benzenesulfonyl(4-OMe) = COc1ccc(S(=O)(=O)*)cc1; Benzoyl(2-COOH) = O=C(O)c1ccccc1C(=O)*; Phe(3-F) = N[C@@H](Cc1cccc(F)c1)C(=O)O; Phe(4-F) = N[C@@H](Cc1ccc(F)cc1)C(=O)O; 1Nal = N[C@@H](Cc1cccc2ccccc12)C(=O)O; 3Pal = N[C@@H](Cc1cccnc1)C(=O)O; pS = N[C@@H](COP(=O)(O)O)C(=O)O; Fumaroyl = O=C(O)/C=C/C(=O)*; Suc = O=C(CCC(=O)[*:2])[*:1]; Tos = Cc1ccc(S(=O)(=O)*)cc1

In assay [1] the target is βTrCP (Homo sapiens, UniProt Q9Y297). The assay is described as follows: Fluorescence polarisation (FP) binding assay with fluorescein-tagged IκB peptide.
Assay [2] deals with Skp2 (Homo sapiens, UniProt Q13309). The assay is described as follows: Selectivity assay vs other E3s: Skp2. As to conditions: for inhibition at 100 µM: value in brackets, read-out: % Inhibition Skp2 @ (100 μM); for inhibition at 10 µM: read-out: % Inhibition Skp2 @ 10 μM. The format is biochemical. As for the experimental part:
(§1) βTrCP Ubiquitination Assay and Selectivity Assays
(§2) Master mixes were prepared in a 50 mM Herpes buffer at pH 7.5, in 75 mM NaCl and 1 mM DTT without Mg or ATP and peptides were added to a final concentration of 100 μM. Reactions were incubated at room temperature for 30 minutes and then Mg/ATP was added to the mix. Reactions were further incubated for an additional 60 minutes and then stopped by adding SDS gel loading buffer and boiled for 5 minutes. Reactions were run on SDS-PAGE (10%) and transferred to nitrocellulose membranes and probed with HRP-Streptavidin.
(§3) Candidate compounds were tested for inhibition of Fbw7 and Skp2 as described above.

Assay [3] concerns the target FBW7/Skp1 (Homo sapiens, UniProt Q969H0). The assay is described as follows: Selectivity assay vs other E3s: Fbw7. The format is biochemical. The note with it: for inhibition at 100 µM: value in brackets, read-out: % Inhibition Fbw7 @ (100 μM); for inhibition at 10 µM: read-out: % Inhibition Fbw7 @ 10 μM. As for the experimental part: as §1, §2
FBW7 selectivity assays were performed in the same manner except using FBW7/Skp1 as E3 component and cyclin E as the substrate. Blots were probed using anti-cyclin E antibody.
as §3

The mark [4] stands for this setting: Table 11, with spread, read-out: FP IC50/μM.
[5] abbreviates: Tables 1, 3, 7, 8, 10 nM fluorescein-tagged IκB peptide, read-out: FP Assay IC50/μM.

Sequence of FBW7/Skp1 (Q969H0 whole entry, species assumed): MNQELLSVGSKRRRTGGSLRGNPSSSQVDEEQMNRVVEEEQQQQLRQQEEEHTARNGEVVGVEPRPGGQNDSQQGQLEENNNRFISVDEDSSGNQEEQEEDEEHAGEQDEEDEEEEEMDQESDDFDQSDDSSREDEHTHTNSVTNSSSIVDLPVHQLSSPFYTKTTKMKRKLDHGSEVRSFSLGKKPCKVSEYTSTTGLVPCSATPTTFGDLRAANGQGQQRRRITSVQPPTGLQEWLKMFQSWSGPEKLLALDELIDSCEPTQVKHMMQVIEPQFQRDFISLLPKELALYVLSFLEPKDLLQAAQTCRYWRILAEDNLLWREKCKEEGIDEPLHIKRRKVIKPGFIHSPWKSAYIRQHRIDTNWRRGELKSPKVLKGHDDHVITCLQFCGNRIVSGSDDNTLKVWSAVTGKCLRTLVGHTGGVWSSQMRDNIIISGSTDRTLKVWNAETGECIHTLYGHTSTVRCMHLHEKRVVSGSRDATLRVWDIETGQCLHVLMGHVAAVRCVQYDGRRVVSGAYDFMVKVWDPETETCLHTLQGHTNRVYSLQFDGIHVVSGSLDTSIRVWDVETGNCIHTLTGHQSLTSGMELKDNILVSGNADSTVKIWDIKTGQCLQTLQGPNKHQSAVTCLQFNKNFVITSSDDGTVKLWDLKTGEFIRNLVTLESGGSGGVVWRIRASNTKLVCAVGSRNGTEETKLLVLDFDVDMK
Sequence of FBW7/Skp1 (P63208 whole entry partner, species assumed): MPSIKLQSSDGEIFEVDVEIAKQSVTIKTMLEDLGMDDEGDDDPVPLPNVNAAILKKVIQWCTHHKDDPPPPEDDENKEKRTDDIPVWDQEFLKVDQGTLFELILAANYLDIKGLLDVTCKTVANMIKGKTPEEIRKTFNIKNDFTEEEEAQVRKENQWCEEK
Sequence of FBW7/Skp1 (Q13616 whole entry partner, species assumed): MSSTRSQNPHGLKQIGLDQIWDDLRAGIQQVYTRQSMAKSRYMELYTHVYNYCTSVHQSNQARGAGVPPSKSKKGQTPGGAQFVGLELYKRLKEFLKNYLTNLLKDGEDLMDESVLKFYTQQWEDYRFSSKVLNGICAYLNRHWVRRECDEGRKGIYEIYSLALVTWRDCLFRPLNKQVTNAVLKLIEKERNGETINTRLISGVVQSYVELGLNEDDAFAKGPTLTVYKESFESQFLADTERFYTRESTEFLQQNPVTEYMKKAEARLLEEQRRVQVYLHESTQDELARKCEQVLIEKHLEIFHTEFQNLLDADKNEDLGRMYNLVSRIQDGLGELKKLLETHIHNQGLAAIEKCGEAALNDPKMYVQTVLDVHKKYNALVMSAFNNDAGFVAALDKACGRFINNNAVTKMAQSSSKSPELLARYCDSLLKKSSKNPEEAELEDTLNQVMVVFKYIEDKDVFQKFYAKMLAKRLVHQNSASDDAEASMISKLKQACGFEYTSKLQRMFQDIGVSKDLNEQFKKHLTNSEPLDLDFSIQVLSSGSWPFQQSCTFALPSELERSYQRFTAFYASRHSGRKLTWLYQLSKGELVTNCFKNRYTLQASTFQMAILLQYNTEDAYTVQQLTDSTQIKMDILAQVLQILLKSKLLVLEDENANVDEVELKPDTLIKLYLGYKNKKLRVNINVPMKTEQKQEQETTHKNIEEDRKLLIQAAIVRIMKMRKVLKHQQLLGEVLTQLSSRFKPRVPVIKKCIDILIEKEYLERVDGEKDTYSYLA
Sequence of FBW7/Skp1 (P62877 whole entry partner, species assumed): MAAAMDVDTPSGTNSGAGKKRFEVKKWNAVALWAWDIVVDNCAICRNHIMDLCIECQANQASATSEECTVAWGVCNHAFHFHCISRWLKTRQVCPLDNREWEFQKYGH
Sequence of Skp2 (Q13309 whole entry, species assumed): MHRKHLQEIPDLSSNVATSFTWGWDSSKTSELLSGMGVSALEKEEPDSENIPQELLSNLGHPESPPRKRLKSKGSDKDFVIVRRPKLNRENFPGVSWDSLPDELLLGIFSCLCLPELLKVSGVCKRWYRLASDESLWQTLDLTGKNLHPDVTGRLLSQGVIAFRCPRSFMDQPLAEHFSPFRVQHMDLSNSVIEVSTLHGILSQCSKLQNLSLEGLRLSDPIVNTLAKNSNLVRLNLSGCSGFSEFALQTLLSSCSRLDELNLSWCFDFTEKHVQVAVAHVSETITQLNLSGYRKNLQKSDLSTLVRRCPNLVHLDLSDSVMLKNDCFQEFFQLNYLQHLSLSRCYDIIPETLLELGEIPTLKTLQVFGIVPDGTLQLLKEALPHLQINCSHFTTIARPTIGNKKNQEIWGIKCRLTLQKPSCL
Sequence of Skp2 (P63208 whole entry partner, species assumed): as the sequence (P63208 whole entry partner, species assumed) above
Sequence of Skp2 (Q13616 whole entry partner, species assumed): as the sequence (Q13616 whole entry partner, species assumed) above
Sequence of Skp2 (P62877 whole entry partner, species assumed): as the sequence (P62877 whole entry partner, species assumed) above
Sequence of βTrCP (Q9Y297 whole entry): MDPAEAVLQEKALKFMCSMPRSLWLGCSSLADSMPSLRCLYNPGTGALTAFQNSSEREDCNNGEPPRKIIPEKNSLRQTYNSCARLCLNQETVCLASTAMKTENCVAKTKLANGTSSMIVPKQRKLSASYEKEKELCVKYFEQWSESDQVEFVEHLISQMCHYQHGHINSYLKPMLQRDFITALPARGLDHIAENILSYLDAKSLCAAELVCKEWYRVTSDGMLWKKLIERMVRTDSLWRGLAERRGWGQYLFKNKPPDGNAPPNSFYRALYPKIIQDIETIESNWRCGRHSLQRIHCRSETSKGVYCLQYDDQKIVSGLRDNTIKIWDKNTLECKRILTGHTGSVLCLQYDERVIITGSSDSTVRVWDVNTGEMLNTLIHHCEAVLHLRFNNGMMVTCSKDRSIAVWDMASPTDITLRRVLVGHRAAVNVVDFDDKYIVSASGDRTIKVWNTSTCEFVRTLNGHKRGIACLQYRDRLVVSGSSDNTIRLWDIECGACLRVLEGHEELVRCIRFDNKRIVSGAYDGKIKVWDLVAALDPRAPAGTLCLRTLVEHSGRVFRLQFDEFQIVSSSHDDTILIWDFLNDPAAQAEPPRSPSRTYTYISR
Sequence of βTrCP (P63208 whole entry partner): as the sequence (P63208 whole entry partner, species assumed) above

`Cc1ccc(S(=O)(=O)N[C@H](CC(=O)O)C(=O)N[C@@H](CCC(=O)O)C(=O)NCC(=O)N[C@@H](Cc2cccc(F)c2)C(=O)N[C@@H](Cc2c[nH]c3ccccc23)C(=O)N[C@@H](CCC(=O)O)C(N)=O)cc1` [Ts-dEGF(3F)WE-NH2] (Tos-[dD]EG[Phe(3-F)]WE-NH2): the IC50 in assay [1] (setting [4]) turned out to be 0.029 ± 0.005 µM. Further, in assay [2], the inhibition at 100 µM was determined as 25% and the inhibition at 10 µM is 19%. In assay [3], the inhibition at 100 µM came to 0% and the inhibition at 10 µM was 9%.
For the compound `COc1ccc(S(=O)(=O)N[C@@H](CC(=O)O)C(=O)N[C@@H](CCC(=O)O)C(=O)NCC(=O)N[C@@H](Cc2cccc(F)c2)C(=O)N[C@@H](Cc2c[nH]c3ccccc23)C(=O)N[C@@H](CCC(=O)O)C(N)=O)cc1` [4-(MeO)-PhSO2-DEGF(3F)WE-NH2] ({Benzenesulfonyl(4-OMe)}-DEG[Phe(3-F)]WE-NH2), in assay [1] (setting [4]), the IC50 was 0.027 ± 0.002 µM. In addition, the inhibition at 100 µM came to 3% in assay [2] and 8% in assay [3]. Moreover, the inhibition at 10 µM in assay [2] stood at 15%; in assay [3], 0%.
Consider `NC(=O)[C@H](CCC(=O)O)NC(=O)[C@H](Cc1ccc([N+](=O)[O-])cc1)NC(=O)[C@H](Cc1cccc(F)c1)NC(=O)CNC(=O)[C@H](CCC(=O)O)NC(=O)/C=C/C(=O)O` [Fum-EG-F(3F)-F(4NO2)-E-NH2] (Fumaroyl-EG[Phe(3-F)][Phe(4-NO2)]E-NH2), for which the IC50 in assay [1] (setting [5]) is 60.4 µM.
Regarding `CC[C@H](C)[C@H](NC(=O)[C@H](Cc1c[nH]cn1)NC(=O)CNC(=O)[C@H](CO)NC(=O)[C@H](COP(=O)(O)O)NC(=O)[C@H](CC(=O)O)NC(=O)[C@@H](N)CC(C)C)C(=O)N[C@@H](CO)C(N)=O` [LD-pS-SGHIS-NH2] (H-LD[pS]SGHIS-NH2), the IC50 in assay [1] (setting [5]) is more than 100 µM.
Still for that read-out and setting: the value for `NC(=O)[C@H](CCC(=O)O)NC(=O)[C@H](Cc1cccc2ccccc12)NC(=O)[C@H](Cc1cccnc1)NC(=O)CNC(=O)[C@H](CCC(=O)O)NC(=O)CCC(=O)O` [Suc-EG-3Pal-1Nal-E-NH2] (Suc-EG[3Pal][1Nal]E-NH2) was 3.63 µM; that for `C[C@H](NC(=O)[C@H](CCC(=O)O)NC(=O)CCC(=O)O)C(=O)N[C@@H](Cc1cccc(F)c1)C(=O)N[C@@H](Cc1ccc([N+](=O)[O-])cc1)C(=O)N[C@@H](CCC(=O)O)C(N)=O` [Suc-EA-F(3F)-F(4NO2)-E-NH2] was 27.5 µM; that for `C[C@H](NC(=O)[C@H](CCC(=O)O)NC(=O)CCC(=O)O)C(=O)N[C@@H](Cc1ccc(O)cc1)C(=O)N[C@@H](Cc1ccccc1)C(=O)N[C@@H](CCC(=O)O)C(N)=O` [Suc-EAYFE-NH2] was 82.1 µM.
On the same count and under the same terms, the value for `NC(=O)[C@H](Cc1ccc(F)cc1)NC(=O)[C@H](Cc1ccc(O)cc1)NC(=O)CNC(=O)[C@H](CCC(=O)O)NC(=O)CCC(=O)O` [Suc-EGY-F(4F)-NH2] (Suc-EGY[Phe(4-F)]-NH2) was 71 µM.
Take `Cc1ccc(S(=O)(=O)N[C@@H](CC(=O)O)C(=O)N[C@@H](CCC(=O)O)C(=O)NCC(=O)N[C@@H](Cc2cccc(F)c2)C(=O)N[C@@H](Cc2c[nH]c3ccccc23)C(=O)N[C@@H](CCC(=O)O)C(N)=O)cc1` [Ts-DEGF(3F)WE-NH2] (Tos-DEG[Phe(3-F)]WE-NH2): in assay [1] (setting [4]), the IC50 was 0.018 ± 0.002 µM. Moreover, in assay [2], the inhibition at 100 µM came to 7% and the inhibition at 10 µM came out at 0%. For the same compound, in assay [3], the inhibition at 100 µM was found to be 8% and the inhibition at 10 µM was 0%.
In the case of `CC[C@H](C)[C@H](NC(=O)CNC(=O)[C@H](COP(=O)(O)O)NC(=O)[C@@H](N)CCC(=O)O)C(=O)N[C@@H](Cc1ccccc1)C(=O)N[C@@H](CCC(=O)O)C(N)=O` [E-pS-GIFE-NH2] (H-E[pS]GIFE-NH2), the IC50 in assay [1] (setting [5]) is 34.5 µM.
As to `C[C@H](NC(=O)CCC(=O)O)C(=O)NCC(=O)N[C@@H](Cc1ccc(O)cc1)C(=O)N[C@@H](Cc1ccccc1)C(=O)N[C@@H](CCC(=O)O)C(N)=O` [Suc-AGYFE-NH2], the IC50 in assay [1] (setting [5]) is 22.2 µM.
Same read-out and setting: the value for `NC(=O)[C@H](Cc1cccnc1)NC(=O)[C@H](Cc1cccc(F)c1)NC(=O)CNC(=O)[C@H](CCC(=O)O)NC(=O)CCC(=O)O` [Suc-EG-F(3F)-3Pal-NH2] (Suc-EG[Phe(3-F)][3Pal]-NH2) was 70 µM; that for `CC[C@H](C)[C@H](NC(=O)CNC(=O)[C@H](CC(N)=O)NC(=O)[C@H](N)CC(=O)O)C(=O)N[C@@H](Cc1ccccc1)C(=O)N[C@@H](CCCNC(=N)N)C(N)=O` [dNGIFR-NH2] (H-[dD]NGIFR-NH2) was more than 100 µM.
On the same count and under the same terms, the value for `CC[C@H](C)[C@H](NC(=O)CNC(=O)[C@H](COP(=O)(O)O)NC(=O)[C@@H](N)CC(=O)O)C(=O)N[C@@H](Cc1ccccc1)C(=O)N[C@@H](Cc1c[nH]cn1)C(N)=O` [D-pS-GIFH-NH2] (H-D[pS]GIFH-NH2) was more than 100 µM; that for `NC(=O)[C@H](Cc1ccc([N+](=O)[O-])cc1)NC(=O)[C@H](Cc1ccc(O)cc1)NC(=O)CNC(=O)[C@H](CCC(=O)O)NC(=O)CCC(=O)O` [Suc-EGY-F(4NO2)-NH2] (Suc-EGY[Phe(4-NO2)]-NH2) was 91 µM.
With DAGNFE-NH2 [DAGNFE-NH2], the IC50 in assay [1] (setting [5]) was more than 100 µM.
Same read-out and setting: the value for `CC[C@H](C)[C@H](NC(=O)CNC(=O)[C@H](CCC(=O)O)NC(=O)c1ccccc1C(=O)O)C(=O)N[C@@H](Cc1ccccc1)C(=O)N[C@@H](CCC(=O)O)C(N)=O` [Phth-EGIFE-NH2] ({Benzoyl(2-COOH)}-EGIFE-NH2) was more than 100 µM; that for `CC[C@H](C)[C@H](NC(=O)CNC(=O)[C@H](CCC(=O)O)NC(=O)CCC(=O)O)C(=O)N[C@@H](Cc1cccc2ccccc12)C(=O)N[C@@H](CCC(=O)O)C(N)=O` [Suc-EGI-1Nal-E-NH2] (Suc-EGI[1Nal]E-NH2) was 15.1 µM.
`CC[C@H](C)[C@H](NC(=O)CNC(=O)[C@H](COP(=O)(O)O)NC(=O)[C@H](CC(=O)O)NC(=O)[C@H](C)N)C(=O)N[C@@H](Cc1c[nH]cn1)C(=O)N[C@@H](CO)C(N)=O` [AD-pS-GIHS-NH2] (H-AD[pS]GIHS-NH2): the IC50 in assay [1] (setting [5]) is more than 100 µM.
On to `COc1ccc(S(=O)(=O)N[C@H](CC(=O)O)C(=O)N[C@@H](CCC(=O)O)C(=O)NCC(=O)N[C@@H](Cc2cccc(F)c2)C(=O)N[C@@H](Cc2c[nH]c3ccccc23)C(=O)N[C@@H](CCC(=O)O)C(N)=O)cc1` [4-(MeO)-PhSO2-dEGF(3F)WE-NH2] ({Benzenesulfonyl(4-OMe)}-[dD]EG[Phe(3-F)]WE-NH2), for which the IC50 in assay [1] (setting [4]) came to 0.017 ± 0.002 µM. Further, in assay [2], the inhibition at 100 µM turned out to be 12% and the inhibition at 10 µM came to 7%. For the same compound, in assay [3], the inhibition at 100 µM is 18% and the inhibition at 10 µM was determined as 0%.
Regarding `NC(=O)[C@H](CCC(=O)O)NC(=O)[C@H](Cc1cccc2ccccc12)NC(=O)[C@H](Cc1ccc([N+](=O)[O-])cc1)NC(=O)CNC(=O)[C@@H](N)CCC(=O)O` [EG-F(4NO2)-1Nal-E-NH2] (H-EG[Phe(4-NO2)][1Nal]E-NH2), the IC50 in assay [1] (setting [5]) was more than 100 µM.
Same read-out and setting: the value for `CC[C@H](C)[C@H](NC(=O)CNC(=O)[C@H](C)NC(=O)[C@H](N)CC(=O)O)C(=O)N[C@@H](Cc1ccccc1)C(=O)N[C@@H](CCCNC(=N)N)C(N)=O` [dAGIFR-NH2] (H-[dD]AGIFR-NH2) was more than 100 µM.

As usually defined, the inhibition is the share of the control response that was lost under treatment.
